Test results taken from patent US20090018134A1, “Compounds - 945” (AstraZeneca AB, priority 2007, published 2009).
Where two headings read alike, the source gives them in different places.

Molecular target: T1, mTOR (Homo sapiens, UniProt P42345)
T1 construct: FLAG; made in house
Assay: In Vitro mTOR Kinase Assay (Echo), Test (a)(ii)
Format: biochemical
Excerpt: (a)(ii) In Vitro mTOR Kinase Assay (Echo)
The assay used AlphaScreen technology (Gray et al., Analytical Biochemistry, 2003, 313: 234-245) to determine the ability of test compounds to inhibit phosphorylation by recombinant mTOR.
A C-terminal truncation of mTOR encompassing amino acid residues 1362 to 2549 of mTOR (EMBL Accession No. L34075) was stably expressed as a FLAG-tagged fusion in HEK293 cells as described by Vilella-Bach et al., […], 1999, 274, 4266-4272. The HEK293 FLAG-tagged mTOR (1362-2549) stable cell line was routinely maintained at 37° C. with 5% CO2 up to a confluency of 70-90% in Dulbecco's modified Eagle's growth medium (DMEM; Invitrogen Limited, Paisley, UK Catalogue No. 41966-029) containing 10% heat-inactivated foetal calf serum (FCS; Sigma, Poole, Dorset, UK, Catalogue No. F0392), 1% L-glutamine (Gibco, Catalogue No. 25030-024) and 2 mg/ml Geneticin (G418 sulfate; Invitrogen Limited, UK Catalogue No. 1013 1-027). Following expression in the mammalian HEK293 cell line, expressed protein was purified using the FLAG epitope tag using standard purification techniques.
Aliquots (120 nl […]) of each compound dilution were acoustically dispensed placed using a Labcyte Echo 550 into a well of a Greiner 384-well low volume (LV) white polystyrene plate (Greiner Bio-one).
These assay solutions were incubated for 2 hours at room temperature.
Each reaction was stopped by the addition of […] of a mixture of EDTA (50 mM), bovine serum albumin (BSA; 0.5 mg/mL) and Tris-HCl pH 7.4 buffer (50 mM) containing p70 S6 Kinase (T389) 1A5 Monoclonal Antibody (Cell Signalling Technology, Catalogue No. 9206B) and AlphaScreen Streptavidin donor and Protein A acceptor beads (200 ng; Perkin Elmer, Catalogue No. 6760002B and 6760137R respectively) were added and the assay plates were left overnight at room temperature in the dark. The resultant signals arising from laser light excitation at 680 nm were read using a Packard Envision instrument.
The phosphorylated biotinylated peptide that is associated with AlphaScreen Streptavidin donor beads forms a complex with the p70 S6 Kinase (T389) 1A5 Monoclonal Antibody that is associated with Alphascreen Protein A acceptor beads. Upon laser light excitation at 680 nm, the donor bead: acceptor bead complex produces a signal that can be measured. Accordingly, the presence of mTOR kinase activity results in an assay signal. In the presence of an mTOR kinase inhibitor, signal strength is reduced.
mTOR enzyme inhibition for a given test compound was expressed as an IC50 value.

[1] = read-out: mTOR Kinase Assay (Echo)
[2] = table of enzyme assay Test (a)(ii), read-out: Test (a)(ii) IC50

T1 sequence (P42345 1362-2549): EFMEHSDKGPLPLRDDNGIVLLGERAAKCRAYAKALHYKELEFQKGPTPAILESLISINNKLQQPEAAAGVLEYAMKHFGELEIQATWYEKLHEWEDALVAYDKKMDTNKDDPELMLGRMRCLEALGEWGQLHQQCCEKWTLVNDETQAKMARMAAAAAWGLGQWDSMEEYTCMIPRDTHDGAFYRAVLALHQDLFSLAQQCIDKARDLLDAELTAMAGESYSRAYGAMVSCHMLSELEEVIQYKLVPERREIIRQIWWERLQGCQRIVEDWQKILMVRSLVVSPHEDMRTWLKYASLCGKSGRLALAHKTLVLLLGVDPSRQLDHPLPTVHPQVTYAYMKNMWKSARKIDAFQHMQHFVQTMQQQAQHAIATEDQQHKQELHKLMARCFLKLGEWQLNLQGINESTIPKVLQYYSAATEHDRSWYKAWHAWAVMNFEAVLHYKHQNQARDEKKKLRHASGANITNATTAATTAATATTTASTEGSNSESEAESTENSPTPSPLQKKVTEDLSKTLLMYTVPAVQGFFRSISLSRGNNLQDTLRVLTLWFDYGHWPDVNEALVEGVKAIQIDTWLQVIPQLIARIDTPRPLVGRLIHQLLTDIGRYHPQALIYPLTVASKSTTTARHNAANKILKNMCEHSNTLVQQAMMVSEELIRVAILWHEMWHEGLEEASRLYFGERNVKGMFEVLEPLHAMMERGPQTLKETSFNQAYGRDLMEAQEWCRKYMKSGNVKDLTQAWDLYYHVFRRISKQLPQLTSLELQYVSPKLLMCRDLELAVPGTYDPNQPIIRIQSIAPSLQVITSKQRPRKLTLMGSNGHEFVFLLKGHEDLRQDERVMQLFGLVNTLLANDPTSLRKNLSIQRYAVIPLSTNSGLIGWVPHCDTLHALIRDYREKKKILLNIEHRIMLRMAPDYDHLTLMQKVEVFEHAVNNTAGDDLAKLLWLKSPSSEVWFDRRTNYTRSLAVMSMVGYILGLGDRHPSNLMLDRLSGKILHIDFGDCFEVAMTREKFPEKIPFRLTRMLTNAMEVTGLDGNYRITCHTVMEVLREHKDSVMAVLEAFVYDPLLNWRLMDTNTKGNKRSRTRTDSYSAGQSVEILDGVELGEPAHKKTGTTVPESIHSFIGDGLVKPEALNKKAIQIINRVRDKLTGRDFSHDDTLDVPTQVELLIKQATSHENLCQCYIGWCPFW

| SMILES | IC50 [1] | IC50 [2] |
| --- | --- | --- |
| C[C@H]1COCCN1c1cc(C2(S(C)(=O)=O)CC2)nc(-c2ccc(NC(=O)Nc3ccc(F)cc3)cc2)n1 [Example 2p, 3-(4-fluorophenyl)-1-[4-[4-[(3S)-3-methylmorpholin-4-yl]-6-(1-methylsulfonylcyclopropyl)pyrimidin-2-yl]phenyl]urea] | 2.7 nM |  |
| C[C@H]1COCCN1c1cc(C2(S(C)(=O)=O)CC2)nc(-c2ccc(NC(=O)Nc3ccc(F)c(F)c3)cc2)n1 [Example 2q, 3-(3,4-difluorophenyl)-1-[4-[4-[(3S)-3-methylmorpholin-4-yl]-6-(1-methylsulfonylcyclopropyl)pyrimidin-2-yl]phenyl]urea] | 1 nM | 0.379 nM |
| Cc1ccc(NC(=O)Nc2ccc(-c3nc(N4CCOC[C@@H]4C)cc(C4(S(C)(=O)=O)CC4)n3)cc2)cc1 [Example 2r, 1-[4-[4-[(3S)-3-methylmorpholin-4-yl]-6-(1-methylsulfonylcyclopropyl)pyrimidin-2-yl]phenyl]-3-(4-methylphenyl)urea] | 0.66 nM | 1.03 nM |
| C[C@H]1COCCN1c1cc(C2(S(C)(=O)=O)CC2)nc(-c2ccc(NC(=O)Nc3ccc(Cl)cc3)cc2)n1 [Example 2s, 3-(4-chlorophenyl)-1-[4-[4-[(3S)-3-methylmorpholin-4-yl]-6-(1-methylsulfonylcyclopropyl)pyrimidin-2-yl]phenyl]urea] | 1.38 nM | 1.55 nM |
| COc1ccc(NC(=O)Nc2ccc(-c3nc(N4CCOC[C@@H]4C)cc(C4(S(C)(=O)=O)CC4)n3)cc2)cc1 [Example 2t, 3-(4-methoxyphenyl)-1-[4-[4-[(3S)-3-methylmorpholin-4-yl]-6-(1-methylsulfonylcyclopropyl)pyrimidin-2-yl]phenyl]urea] | 1.45 nM | 0.656 nM |
| Cc1cc(NC(=O)Nc2ccc(-c3nc(N4CCOC[C@@H]4C)cc(C4(S(C)(=O)=O)CC4)n3)cc2)no1 [Example 2u, 1-[4-[4-[(3S)-3-methylmorpholin-4-yl]-6-(1-methylsulfonylcyclopropyl)pyrimidin-2-yl]phenyl]-3-(5-methyl-1,2-oxazol-3-yl)urea] | 1.18 nM |  |
| C[C@H]1COCCN1c1cc(C2(S(C)(=O)=O)CC2)nc(-c2ccc(NC(=O)Nc3ccc(F)cn3)cc2)n1 [Example 2v, 3-(5-fluoropyridin-2-yl)-1-[4-[4-[(3S)-3-methylmorpholin-4-yl]-6-(1-methylsulfonylcyclopropyl)pyrimidin-2-yl]phenyl]urea] | 8.66 nM |  |
| C[C@H]1COCCN1c1cc(C2(S(C)(=O)=O)CC2)nc(-c2ccc(NC(=O)NCC(C)(C)CO)cc2)n1 [Example 2w, 3-(3-hydroxy-2,2-dimethylpropyl)-1-[4-[4-[(3S)-3-methylmorpholin-4-yl]-6-(1-methylsulfonylcyclopropyl)pyrimidin-2-yl]phenyl]urea] | 68.5 nM |  |
| C[C@H]1COCCN1c1cc(C2(S(C)(=O)=O)CC2)nc(-c2ccc(NC(=O)NCCC#N)cc2)n1 [Example 2x, 3-(2-cyanoethyl)-1-[4-[4-[(3S)-3-methylmorpholin-4-yl]-6-(1-methylsulfonylcyclopropyl)pyrimidin-2-yl]phenyl]urea] | 1.64 nM |  |
| C[C@H]1COCCN1c1cc(C2(S(C)(=O)=O)CC2)nc(-c2ccc(NC(=O)NCCN3CCCC3)cc2)n1 [Example 2y, 1-[4-[4-[(3S)-3-methylmorpholin-4-yl]-6-(1-methylsulfonylcyclopropyl)pyrimidin-2-yl]phenyl]-3-(2-pyrrolidin-1-ylethyl)urea] | 230 nM |  |
| C[C@H]1COCCN1c1cc(C2(S(C)(=O)=O)CC2)nc(-c2ccc(NC(=O)NCC(O)C(F)(F)F)cc2)n1 (stereo partly drawn) [Example 2z, 1-[4-[4-[(3S)-3-methylmorpholin-4-yl]-6-(1-methylsulfonylcyclopropyl)pyrimidin-2-yl]phenyl]-3-(3,3,3-trifluoro-2-hydroxypropyl)urea] | 18.1 nM |  |
| C[C@H]1COCCN1c1cc(C2(S(=O)(=O)C3CC3)CC2)nc(-c2ccc(NC(=O)NC3CCC3)cc2)n1 [Example 3a, 3-cyclobutyl-1-[4-[4-(1-cyclopropylsulfonylcyclopropyl)-6-[(3S)-3-methylmorpholin-4-yl]pyrimidin-2-yl]phenyl]urea] | 4.45 nM |  |
